Test results taken from PubChem BioAssay (NCI).
Values joined by “and” are separate entries in the source; they are usually repeats but may differ in a detail not shown here. Equal values may be shown once.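 Assay format: 96-well plates, 48-hour exposure. GI50 is the concentration that inhibits growth by half. TGI: concentration producing complete growth inhibition.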

Assays:
Test in all cases: NCI anticancer screen, dose series, 48 h
DLD-1 colon = system: DLD-1 colon
TK-10 renal = system: TK-10 renal
SF-268 CNS = system: SF-268 CNS
SNB-19 CNS = system: SNB-19 CNS
HT29 colon = system: HT29 colon
HCT-15 colon = system: HCT-15 colon
KM20L2 colon = system: KM20L2 colon
RPMI-8226 leukemia = system: RPMI-8226 leukemia
MCF7 breast = system: MCF7 breast
T-47D breast = system: T-47D breast

| Structure (SMILES) | TGI (DLD-1 colon) | TGI (TK-10 renal) | TGI (SF-268 CNS) | TGI (SNB-19 CNS) | TGI (HT29 colon) | TGI (HCT-15 colon) | TGI (KM20L2 colon) | TGI (RPMI-8226 leukemia) | TGI (MCF7 breast) | TGI (T-47D breast) | GI50 (TK-10 renal) | GI50 (SNB-19 CNS) | GI50 (HCT-15 colon) | GI50 (KM20L2 colon) | GI50 (T-47D breast) |
| --- | --- | --- | --- | --- | --- | --- | --- | --- | --- | --- | --- | --- | --- | --- | --- |
| COc1cccc(N2C(=O)C3C4C=C5c6ccccc6N(c6ccccc6)C5(C3C2=O)[C@H]2C(=O)N(c3cccc(OC)c3)C(=O)[C@@H]42)c1 (stereo partly drawn) | > 100 µM | > 100 µM | > 100 µM | > 100 µM | > 100 µM | > 100 µM | > 100 µM | > 100 µM | – | – | – | – | – | – | – |
| CCC1(CN(C)C)CC/C(=C\c2ccc(OC)c(OC)c2)C1=O (stereo not drawn) | > 100 µM | > 100 µM | > 100 µM | > 100 µM | > 100 µM | > 100 µM | > 100 µM | > 69.1 µM | – | – | – | – | – | – | – |
| O=C(CCCN1CCC(C(O)c2ccc(F)cc2)CC1)c1ccc(F)cc1 (stereo not drawn) | 120 µM | 86.8 µM | 122 µM | 114 µM | 92.7 µM | 123 µM | 96 µM | 168 µM | 122 µM | 137 µM | – | – | – | – | – |
| C=C(C(=C)P(=S)(C(C)C)C(C)C)P(=S)(C(C)C)C(C)C | > 100 µM | > 100 µM | > 100 µM | > 100 µM | > 100 µM | > 100 µM | > 100 µM | > 100 µM | – | – | – | – | – | – | – |
| CCCCCCCCCCCc1c(O)c(=O)c2c(oc3c(=O)c(CCCCCCCCCCC)c(O)c(=O)c3n2-c2ccc(N(C)C)cc2)c1=O | 50.5 µM | 33 µM | 58.1 µM | 58.9 µM | 46.8 µM | 35.6 µM | 38.5 µM | > 100 µM | – | – | – | – | – | – | – |
| COc1ccc(C(=O)C#Cc2c[nH]c(=O)[nH]c2=O)cc1 | 24.6 µM | 23.3 µM | 55.3 µM | 44.7 µM | 28 µM | 20.9 µM | 22.8 µM | 41.6 µM | – | – | – | – | – | – | – |
| CC1OC(CC(=O)O)CC2=C1C(=O)c1c(O)cccc1C2=O (stereo not drawn) | 0.0781 µM | 1.82 µM | 1.33 µM | 2.98 µM | 0.427 µM | 0.183 µM | 1.2 µM | 0.241 µM | 0.368 µM | 4.4 µM | – | – | – | – | – |
| COc1ccc(NC(=O)CC(=O)n2nc(C)c(N=Nc3ccccc3C(=O)O)c2C)cc1 | > 100 µM | > 100 µM | > 100 µM | > 100 µM | > 100 µM | > 100 µM | > 100 µM | > 100 µM | – | – | – | – | – | – | – |
| Cn1cc(C(=O)c2ccccc2)cc(C(=O)c2ccccc2)c1=O | > 100 µM | > 100 µM | > 100 µM | > 100 µM | > 100 µM | > 100 µM | > 100 µM | > 100 µM | – | – | – | – | – | – | – |
| CC1=Nc2c([nH]c(=S)[nH]c2=O)NC(c2c(Cl)cccc2Cl)C1 (stereo not drawn) | 5.85 µM | 18 µM | 3.96 µM | 6.37 µM | 2.35 µM | 8.67 µM | 13.6 µM | 4.04 µM | 3.12 µM | 3.21 µM | – | – | – | – | – |
| COc1cc2ccnc3c(=C(SC)SC)c(=O)c(c1OC)c23 | 29.5 µM | 27.1 µM | 60.3 µM | > 100 µM | 26.2 µM | 29.8 µM | 32.6 µM | 15.9 µM | – | – | – | – | – | – | – |
| CC(=O)OC1=CC2(OC(C)=O)CC(C)(C)C1C1C(=O)C=CC(=O)C12 (stereo not drawn) | > 100 µM | > 100 µM | > 100 µM | > 100 µM | 47.9 µM | > 100 µM | > 100 µM | > 100 µM | > 100 µM | > 100 µM | – | – | – | – | – |
| Cc1ccc(S(=O)(=O)N/N=C/C(C)C)cc1 | > 100 µM | > 100 µM | > 100 µM | > 100 µM | > 100 µM | > 100 µM | > 100 µM | > 100 µM | – | – | – | – | – | – | – |
| COc1ccc2c(c1)-c1nn(CCCN(C)C)c3ccc([N+](=O)[O-])c(c13)N2 | 5.24 µM and 6.12 µM | 4.69 µM and 7.86 µM | 6.12 µM and 6.94 µM | 6.33 µM and 11.3 µM | 2.46 µM and 3.05 µM | 2.38 µM and 13.5 µM | 4.98 µM and 10.9 µM | 25.5 µM | 2.7 µM and 10.9 µM | 11.4 µM and 2.27 µM | 0.345 µM and 0.809 µM | 0.192 µM and 0.59 µM | 0.142 µM and 0.541 µM | 0.0855 µM and 0.49 µM | 0.668 µM and 0.308 µM |
| N#CC1=C(O)NC(O)=C(C#N)C1c1ccc(C2C(C#N)=C(O)NC(O)=C2C#N)cc1 | > 100 µM | > 100 µM | > 100 µM | > 100 µM | > 100 µM | > 100 µM | > 100 µM | > 100 µM | – | – | – | – | – | – | – |
| Cc1c2c(c(C)c3c1[nH]c1ccccc13)CN(C)CC2 | > 100 µM | 51.1 µM | 47.6 µM | > 100 µM | 36.3 µM | 31 µM | 41.6 µM | 67 µM | – | – | – | – | – | – | – |
